Organism: Rattus norvegicus
Test: DrugMatrix - Regimen: Daily Repeat
Type: toxicity, organism-based, Sprague-Dawley
Set-up: regimen Daily Repeat, gender Male, age 6-8 weeks
Conditions: in vivo, po, route oral GAVAGE, […]; for ABSOLUTE BASOPHIL / ABSOLUTE EOSINOPHIL / ABSOLUTE LYMPHOCYTE / ABSOLUTE MONOCYTE / ABSOLUTE SEGMENTED NEUTROPHIL / BASOPHIL / EOSINOPHIL / ERYTHROCYTE COUNT / HEMATOCRIT / HEMOGLOBIN / LEUKOCYTE COUNT / LYMPHOCYTE / MEAN CORPUSCULAR HEMOGLOBIN / MEAN CORPUSCULAR HEMOGLOBIN CONCENTRATION / MEAN CORPUSCULAR VOLUME / MONOCYTE / NEUTROPHIL / NUCLEATED RED BLOOD CELLS / PLATELET COUNT: tissue Blood; for ALANINE AMINOTRANSFERASE / ALBUMIN / ALKALINE PHOSPHATASE / ASPARTATE AMINOTRANSFERASE / BLOOD UREA NITROGEN / CARBON DIOXIDE / CHLORIDE / CHOLESTEROL / CREATINE PHOSPHOKINASE / CREATININE / GLUCOSE / LACTATE DEHYDROGENASE / LIPASE / PHOSPHORUS / POTASSIUM / SODIUM / TOTAL BILIRUBIN / TOTAL PROTEIN / URIC ACID: tissue Plasma
[1] = 0.6 mg/kg, 120 h, dose level Low, time 5 day
[2] = 4.5 mg/kg, 72 h, dose level High, time 3 day
[3] = 4.5 mg/kg, 120 h, dose level High, time 5 day

O=C(O)CCCc1ccc(N(CCCl)CCCl)cc1 [CHLORAMBUCIL]
ABSOLUTE BASOPHIL [1]: 0 CELLS/uL
ABSOLUTE EOSINOPHIL [1]: 245.67 CELLS/uL
ABSOLUTE LYMPHOCYTE [1]: 10916 CELLS/uL
ABSOLUTE MONOCYTE [1]: 468.33 CELLS/uL
ABSOLUTE SEGMENTED NEUTROPHIL [1]: 1403.33 CELLS/uL
BASOPHIL [1]: 0%
EOSINOPHIL [1]: 1.67%
ERYTHROCYTE COUNT [1]: 5.48 x10E6/uL
HEMATOCRIT [1]: 34.97%
HEMOGLOBIN [1]: 13.77 G/DL
LEUKOCYTE COUNT [1]: 13.03 x10E3/uL
LYMPHOCYTE [1]: 84.33%
MEAN CORPUSCULAR HEMOGLOBIN [1]: 25.13 pg
MEAN CORPUSCULAR HEMOGLOBIN CONCENTRATION [1]: 39.37 G/DL
MEAN CORPUSCULAR VOLUME [1]: 63.77 fL
MONOCYTE [1]: 3.67%
NEUTROPHIL [1]: 10.33%
NUCLEATED RED BLOOD CELLS [1]: 0 /100WBC
PLATELET COUNT [1]: 1176 x10E3/uL
ALANINE AMINOTRANSFERASE [1]: 57.33 u/L
ALBUMIN [1]: 4.03 G/DL
ALKALINE PHOSPHATASE [1]: 437.67 u/L
ASPARTATE AMINOTRANSFERASE [1]: 74.67 u/L
BLOOD UREA NITROGEN [1]: 12 mg/dL
CARBON DIOXIDE [1]: 24.33 mmol/L
CHLORIDE [1]: 100.67 MEQ/L
CHOLESTEROL [1]: 76.67 mg/dL
CREATINE PHOSPHOKINASE [1]: 301 u/L
CREATININE [1]: 0.16 mg/dL
GLUCOSE [1]: 184.33 mg/dL
LACTATE DEHYDROGENASE [1]: 187.33 u/L
LIPASE [1]: 7 u/L
PHOSPHORUS [1]: 10.63 mg/dL
POTASSIUM [1]: 6.13 MEQ/L
SODIUM [1]: 139.57 MEQ/L
TOTAL BILIRUBIN [1]: 0.13 mg/dL
TOTAL PROTEIN [1]: 5.83 G/DL
URIC ACID [1]: 1.33 mg/dL
ABSOLUTE BASOPHIL [2]: 0 CELLS/uL
ABSOLUTE EOSINOPHIL [2]: 76.67 CELLS/uL
ABSOLUTE LYMPHOCYTE [2]: 5496.33 CELLS/uL
ABSOLUTE MONOCYTE [2]: 177.33 CELLS/uL
ABSOLUTE SEGMENTED NEUTROPHIL [2]: 816.33 CELLS/uL
BASOPHIL [2]: 0%
EOSINOPHIL [2]: 1.33%
ERYTHROCYTE COUNT [2]: 5.43 x10E6/uL
HEMATOCRIT [2]: 34.5%
HEMOGLOBIN [2]: 13.73 G/DL
LEUKOCYTE COUNT [2]: 6.57 x10E3/uL
LYMPHOCYTE [2]: 84.33%
MEAN CORPUSCULAR HEMOGLOBIN [2]: 25.33 pg
MEAN CORPUSCULAR HEMOGLOBIN CONCENTRATION [2]: 39.77 G/DL
MEAN CORPUSCULAR VOLUME [2]: 63.67 fL
MONOCYTE [2]: 2.67%
NEUTROPHIL [2]: 11.67%
NUCLEATED RED BLOOD CELLS [2]: 0 /100WBC
PLATELET COUNT [2]: 1208.33 x10E3/uL
ALANINE AMINOTRANSFERASE [2]: 50 u/L
ALBUMIN [2]: 4.1 G/DL
ALKALINE PHOSPHATASE [2]: 336 u/L
ASPARTATE AMINOTRANSFERASE [2]: 69 u/L
BLOOD UREA NITROGEN [2]: 13 mg/dL
CARBON DIOXIDE [2]: 25.33 mmol/L
CHLORIDE [2]: 100.33 MEQ/L
CHOLESTEROL [2]: 70.67 mg/dL
CREATINE PHOSPHOKINASE [2]: 260.33 u/L
CREATININE [2]: 0.34 mg/dL
GLUCOSE [2]: 191.33 mg/dL
LACTATE DEHYDROGENASE [2]: 111 u/L
LIPASE [2]: 9 u/L
PHOSPHORUS [2]: 12.53 mg/dL
POTASSIUM [2]: 6.51 MEQ/L
SODIUM [2]: 140.03 MEQ/L
TOTAL BILIRUBIN [2]: 0.1 mg/dL
TOTAL PROTEIN [2]: 5.57 G/DL
URIC ACID [2]: 2.1 mg/dL
ABSOLUTE BASOPHIL [3]: 0 CELLS/uL
ABSOLUTE EOSINOPHIL [3]: 0 CELLS/uL
ABSOLUTE LYMPHOCYTE [3]: 1406 CELLS/uL
ABSOLUTE MONOCYTE [3]: 62.67 CELLS/uL
ABSOLUTE SEGMENTED NEUTROPHIL [3]: 98 CELLS/uL
BASOPHIL [3]: 0%
EOSINOPHIL [3]: 0%
ERYTHROCYTE COUNT [3]: 5.5 x10E6/uL
HEMATOCRIT [3]: 34.17%
HEMOGLOBIN [3]: 13.53 G/DL
LEUKOCYTE COUNT [3]: 1.57 x10E3/uL
LYMPHOCYTE [3]: 90%
MEAN CORPUSCULAR HEMOGLOBIN [3]: 24.63 pg
MEAN CORPUSCULAR HEMOGLOBIN CONCENTRATION [3]: 39.63 G/DL
MEAN CORPUSCULAR VOLUME [3]: 62.13 fL
MONOCYTE [3]: 4%
NEUTROPHIL [3]: 6%
NUCLEATED RED BLOOD CELLS [3]: 0 /100WBC
PLATELET COUNT [3]: 1169.33 x10E3/uL
ALANINE AMINOTRANSFERASE [3]: 45 u/L
ALBUMIN [3]: 3.97 G/DL
ALKALINE PHOSPHATASE [3]: 263.67 u/L
ASPARTATE AMINOTRANSFERASE [3]: 75.33 u/L
BLOOD UREA NITROGEN [3]: 13 mg/dL
CARBON DIOXIDE [3]: 24.33 mmol/L
CHLORIDE [3]: 101 MEQ/L
CHOLESTEROL [3]: 70.67 mg/dL
CREATINE PHOSPHOKINASE [3]: 644 u/L
CREATININE [3]: 0.13 mg/dL
GLUCOSE [3]: 157 mg/dL
LACTATE DEHYDROGENASE [3]: 154 u/L
LIPASE [3]: 7.33 u/L
PHOSPHORUS [3]: 9.53 mg/dL
POTASSIUM [3]: 6.16 MEQ/L
SODIUM [3]: 140.2 MEQ/L
TOTAL BILIRUBIN [3]: 0.2 mg/dL
TOTAL PROTEIN [3]: 5.73 G/DL
URIC ACID [3]: 1.3 mg/dL
